From ChEMBL document CHEMBL1201862, “PubChem BioAssay data set” (2004)
Calls of active or inactive are those of the source.

How the values were obtained:
[1] = Trypanosoma cruzi growth suppression in host cells – NIH3T3 host cells, beta-gal luminescence, confirmation (AID 2044); type: functional, cell-based;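 note: intracellular parasites grown in NIH/3T3 mouse fibroblasts as host cells; luminescent beta-galactosidase reporter signal from transgenic T. cruzi replicating inside host cells; inhibitors lower the luminescence signal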
[2] = biological target: T1, Sentrin-specific protease 7 (Homo sapiens, UniProt Q9BQF6); type: functional;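 note: Luminescence-based dose-response confirmation of ultra-high-throughput screening hits, measuring inhibition of SENP7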
T1 sequence (Q9BQF6 whole entry): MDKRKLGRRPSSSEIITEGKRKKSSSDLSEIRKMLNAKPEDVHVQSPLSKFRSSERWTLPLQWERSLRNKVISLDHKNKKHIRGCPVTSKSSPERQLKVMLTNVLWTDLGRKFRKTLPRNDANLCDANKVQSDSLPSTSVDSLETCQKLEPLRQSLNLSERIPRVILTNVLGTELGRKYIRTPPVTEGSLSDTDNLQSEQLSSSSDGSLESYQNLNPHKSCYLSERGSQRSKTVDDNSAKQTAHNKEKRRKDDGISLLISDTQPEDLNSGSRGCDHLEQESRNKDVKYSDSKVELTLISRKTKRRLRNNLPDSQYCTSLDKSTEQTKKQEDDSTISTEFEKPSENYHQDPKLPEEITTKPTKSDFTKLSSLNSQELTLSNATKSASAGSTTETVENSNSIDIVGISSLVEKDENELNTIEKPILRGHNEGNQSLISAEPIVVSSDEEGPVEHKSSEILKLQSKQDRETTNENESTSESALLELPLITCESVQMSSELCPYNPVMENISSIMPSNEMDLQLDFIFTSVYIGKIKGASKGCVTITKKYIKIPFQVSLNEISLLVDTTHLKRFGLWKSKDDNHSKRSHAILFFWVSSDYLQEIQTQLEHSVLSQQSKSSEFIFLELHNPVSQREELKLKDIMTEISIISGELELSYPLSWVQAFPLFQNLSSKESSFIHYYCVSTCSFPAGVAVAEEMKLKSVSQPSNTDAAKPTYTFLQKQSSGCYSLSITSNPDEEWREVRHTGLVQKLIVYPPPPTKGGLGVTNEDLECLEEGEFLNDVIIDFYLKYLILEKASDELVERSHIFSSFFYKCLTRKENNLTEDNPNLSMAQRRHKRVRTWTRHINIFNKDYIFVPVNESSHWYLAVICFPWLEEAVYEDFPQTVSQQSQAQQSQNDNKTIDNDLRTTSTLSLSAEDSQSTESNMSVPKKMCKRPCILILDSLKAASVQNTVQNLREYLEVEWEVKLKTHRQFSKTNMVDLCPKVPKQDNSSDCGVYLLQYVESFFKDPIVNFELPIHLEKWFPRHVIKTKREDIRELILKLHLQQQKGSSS

[3] = biological target: T2, Histone-lysine N-methyltransferase NSD2 (Homo sapiens, UniProt O96028); type: biochemical
T2 sequence (O96028 whole entry): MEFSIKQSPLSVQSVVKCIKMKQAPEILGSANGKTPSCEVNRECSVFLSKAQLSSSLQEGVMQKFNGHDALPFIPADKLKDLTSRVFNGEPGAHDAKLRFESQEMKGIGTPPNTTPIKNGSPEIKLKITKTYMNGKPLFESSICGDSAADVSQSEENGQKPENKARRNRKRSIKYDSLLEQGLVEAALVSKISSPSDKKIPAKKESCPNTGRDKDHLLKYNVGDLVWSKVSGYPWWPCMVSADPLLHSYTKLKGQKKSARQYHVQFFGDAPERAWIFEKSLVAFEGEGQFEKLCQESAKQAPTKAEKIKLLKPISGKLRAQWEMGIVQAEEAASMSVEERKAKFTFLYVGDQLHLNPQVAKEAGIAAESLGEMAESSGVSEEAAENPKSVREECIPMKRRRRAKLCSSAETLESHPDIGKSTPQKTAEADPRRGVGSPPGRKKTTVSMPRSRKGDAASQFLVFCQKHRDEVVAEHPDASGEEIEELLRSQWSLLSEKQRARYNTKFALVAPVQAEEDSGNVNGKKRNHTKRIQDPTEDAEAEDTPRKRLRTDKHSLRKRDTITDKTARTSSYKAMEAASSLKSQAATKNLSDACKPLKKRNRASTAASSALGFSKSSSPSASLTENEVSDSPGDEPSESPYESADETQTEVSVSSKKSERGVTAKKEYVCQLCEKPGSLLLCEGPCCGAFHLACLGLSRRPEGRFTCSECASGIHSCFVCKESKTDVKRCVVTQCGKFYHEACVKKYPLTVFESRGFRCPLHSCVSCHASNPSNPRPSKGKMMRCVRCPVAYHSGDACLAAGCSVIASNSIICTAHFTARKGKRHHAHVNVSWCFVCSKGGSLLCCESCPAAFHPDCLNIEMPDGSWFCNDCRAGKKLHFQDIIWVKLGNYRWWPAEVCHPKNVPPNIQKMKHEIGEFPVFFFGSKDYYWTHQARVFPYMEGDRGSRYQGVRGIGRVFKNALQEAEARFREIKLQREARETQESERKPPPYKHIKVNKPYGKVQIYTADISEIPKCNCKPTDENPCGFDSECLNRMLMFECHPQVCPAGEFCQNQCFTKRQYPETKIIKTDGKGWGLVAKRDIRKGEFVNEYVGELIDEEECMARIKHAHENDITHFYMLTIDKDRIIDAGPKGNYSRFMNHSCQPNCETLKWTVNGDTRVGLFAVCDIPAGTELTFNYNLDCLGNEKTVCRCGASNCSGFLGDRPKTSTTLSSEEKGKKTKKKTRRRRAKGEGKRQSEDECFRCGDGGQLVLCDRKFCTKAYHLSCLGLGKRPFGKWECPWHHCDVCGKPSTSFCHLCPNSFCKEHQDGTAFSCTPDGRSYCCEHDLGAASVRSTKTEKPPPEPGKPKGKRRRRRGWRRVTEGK

Large T antigen = Large T antigen (Simian virus 40, UniProt P03070); type: functional, Betapolyomavirus macacae;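 note: Confirmatory-stage PubChem screen for compounds that inhibit SV40 T antigen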
Sequence of Large T antigen (P03070 whole entry): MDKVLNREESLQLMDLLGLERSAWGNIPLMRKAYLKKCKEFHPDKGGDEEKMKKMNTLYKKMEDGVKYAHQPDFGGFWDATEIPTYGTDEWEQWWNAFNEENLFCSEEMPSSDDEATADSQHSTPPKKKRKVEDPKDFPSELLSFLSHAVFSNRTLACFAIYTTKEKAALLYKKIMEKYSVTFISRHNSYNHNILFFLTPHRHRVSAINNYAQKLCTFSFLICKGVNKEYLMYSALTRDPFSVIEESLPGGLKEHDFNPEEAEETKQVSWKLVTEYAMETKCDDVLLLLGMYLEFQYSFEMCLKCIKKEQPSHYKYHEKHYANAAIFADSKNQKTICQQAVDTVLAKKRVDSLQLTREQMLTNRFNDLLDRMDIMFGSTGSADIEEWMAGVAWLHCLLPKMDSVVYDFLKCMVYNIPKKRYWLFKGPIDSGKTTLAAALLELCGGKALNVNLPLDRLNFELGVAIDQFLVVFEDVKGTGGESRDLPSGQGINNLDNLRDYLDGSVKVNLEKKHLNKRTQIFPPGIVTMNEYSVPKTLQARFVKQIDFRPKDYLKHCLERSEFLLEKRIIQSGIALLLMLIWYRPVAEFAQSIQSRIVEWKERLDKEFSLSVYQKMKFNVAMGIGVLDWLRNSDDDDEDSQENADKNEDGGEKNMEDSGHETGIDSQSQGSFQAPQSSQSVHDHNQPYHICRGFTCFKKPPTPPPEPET

Streptococcus = experiment: GAS UMAA2166 growth inhibition – luminescence, BacTiterGlo, counter-screen for streptokinase expression inhibitor project, dose response (AID 1915); type: functional, organism-based; settings: Streptococcus;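 note: potency for reduction of bacterial viability or growth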
[4] = biological target: Small ubiquitin-related modifier 1 (Homo sapiens, UniProt P63165); experiment: SUMO1 protein-protein binding blockers, potency – biochemical, FRET, dose response (AID 624383); type: functional; settings: read-out: IC50_Mean
Sequence of Small ubiquitin-related modifier 1 (P63165 whole entry): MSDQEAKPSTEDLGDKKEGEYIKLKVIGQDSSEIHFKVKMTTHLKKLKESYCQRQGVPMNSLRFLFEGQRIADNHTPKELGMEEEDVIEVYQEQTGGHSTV

Genome polyprotein = Genome polyprotein (dengue virus type 2, UniProt P29990); experiment: flavivirus cap methylation enzyme inhibition – biochemical, confirmation dose response, primary screen (AID 588689); type: functional
Sequence of Genome polyprotein (P29990 2492-3391 limits assumed): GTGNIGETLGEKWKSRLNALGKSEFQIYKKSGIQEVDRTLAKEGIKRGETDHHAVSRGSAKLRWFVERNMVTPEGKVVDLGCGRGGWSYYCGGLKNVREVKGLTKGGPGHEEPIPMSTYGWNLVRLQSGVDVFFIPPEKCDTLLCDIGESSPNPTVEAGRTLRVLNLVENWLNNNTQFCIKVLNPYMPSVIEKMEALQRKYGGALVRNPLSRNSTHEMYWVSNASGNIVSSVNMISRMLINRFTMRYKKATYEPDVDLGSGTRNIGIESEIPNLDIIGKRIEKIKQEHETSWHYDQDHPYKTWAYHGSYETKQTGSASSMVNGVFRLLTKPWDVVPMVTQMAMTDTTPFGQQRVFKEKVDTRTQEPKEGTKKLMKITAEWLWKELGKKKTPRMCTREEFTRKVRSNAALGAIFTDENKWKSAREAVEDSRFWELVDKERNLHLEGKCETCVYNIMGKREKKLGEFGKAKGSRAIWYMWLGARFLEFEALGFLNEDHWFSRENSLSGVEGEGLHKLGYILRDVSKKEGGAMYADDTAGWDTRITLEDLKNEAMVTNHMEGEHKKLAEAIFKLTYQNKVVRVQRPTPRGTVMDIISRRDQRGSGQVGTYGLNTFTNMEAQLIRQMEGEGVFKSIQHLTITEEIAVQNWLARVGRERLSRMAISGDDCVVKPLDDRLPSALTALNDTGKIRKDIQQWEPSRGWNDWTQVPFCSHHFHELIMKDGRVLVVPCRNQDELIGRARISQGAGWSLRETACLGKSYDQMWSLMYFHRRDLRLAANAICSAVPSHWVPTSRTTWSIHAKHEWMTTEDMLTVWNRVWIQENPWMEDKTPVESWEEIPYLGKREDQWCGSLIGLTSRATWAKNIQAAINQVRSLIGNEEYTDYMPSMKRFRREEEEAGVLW

c1ccc2c(Nc3nnc(-c4ccncc4)s3)cccc2c1
EC50 [1]: 1.59 µM (active)
IC50 [2]: 5.51 µM (active)

COc1cc(C(=O)c2nccc3cc(OC)c(OC)cc23)c([N+](=O)[O-])cc1OC
AC50 [3]: > 20 µM (inactive)
IC50 [2]: 2.93 µM (active)

N#Cc1c(O)nc(SCC(=O)N2c3ccccc3Sc3ccccc32)nc1-c1ccccc1
IC50 (Large T antigen): 52.7 µM (active)
EC50 (Streptococcus): 13.9 µM (active)
IC50 [4]: 19.8 µM (active)
IC50 (Genome polyprotein): 38.9 µM (active)

N=C1S/C(=C\c2ccc(-c3ccccc3C(=O)O)o2)C(=O)N1c1ccc2c(c1)OCO2
AC50 [3]: 3.28 µM (active)
